From US20240158446A1, “CYCLIC COMPOUND HAVING SELECTIVE INHIBITORY ACTION ON KRAS OVER HRAS AND NRAS” (CHUGAI SEIYAKU KABUSHIKI KAISHA, priority 2021, published 2024)

Experiments:
[1] = biological target: GDP-bound NRAS wild-type protein (Homo sapiens, UniProt P01111); experiment: Binding to NRAS by surface plasmon resonance (SPR), Single Cycle Kinetics; details: for NRAS/KRAS (ratio of KD value for NRAS to KD value for KRAS): SPR, GDP-bound NRAS wild-type protein vs GDP-bound KRAS wild-type protein; for NRAS/KRAS (ratio of KD value with respect to GDP-bound NRAS wild-type protein to KD value with respect to KRAS): SPR KD ratio NRAS/KRAS, class symbols
Chain of GDP-bound NRAS wild-type protein (P01111 whole entry): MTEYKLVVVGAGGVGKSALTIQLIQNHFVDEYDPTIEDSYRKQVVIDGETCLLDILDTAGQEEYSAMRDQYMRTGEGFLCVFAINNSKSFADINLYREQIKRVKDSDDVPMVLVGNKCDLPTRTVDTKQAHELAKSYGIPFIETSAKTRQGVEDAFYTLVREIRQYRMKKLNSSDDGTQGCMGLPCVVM

[2] = biological target: GDP-bound HRAS wild-type protein (Homo sapiens, UniProt P01112); experiment: Binding to HRAS by surface plasmon resonance (SPR), Single Cycle Kinetics; details: for HRAS/KRAS (ratio of KD value for HRAS to KD value for KRAS): SPR, GDP-bound HRAS wild-type protein vs GDP-bound KRAS wild-type protein; for HRAS/KRAS (ratio of KD value with respect to GDP-bound HRAS wild-type protein to KD value with respect to KRAS): SPR KD ratio HRAS/KRAS, class symbols
Chain of GDP-bound HRAS wild-type protein (P01112 whole entry): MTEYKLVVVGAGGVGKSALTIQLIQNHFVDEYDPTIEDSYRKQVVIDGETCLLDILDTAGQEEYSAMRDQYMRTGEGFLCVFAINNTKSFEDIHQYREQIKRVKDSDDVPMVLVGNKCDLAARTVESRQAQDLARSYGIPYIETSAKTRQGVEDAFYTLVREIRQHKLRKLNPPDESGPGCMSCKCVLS

| SMILES | NRAS/KRAS (ratio of KD value for NRAS to KD value for KRAS) [1] | HRAS/KRAS (ratio of KD value for HRAS to KD value for KRAS) [2] | further results |
| --- | --- | --- | --- |
| CCC[C@H]1C(=O)N[C@@H]([C@@H](C)CC)C(=O)N(C2CC2)CC(=O)N(C)[C@H]2C/C=C\CCN(C2=O)[C@@H](Cc2ccc(C)cc2)C(=O)N(C)CC(=O)N[C@@H](CCc2ccc(C(F)(F)F)c(OC)c2)C(=O)N2C[C@H](OCC)C[C@H]2C(=O)N(C)C2(CCC2)C(=O)N(C)[C@@H](C(CC)CC)C(=O)N(C)[C@H](C(=O)N(C)C)CC(=O)N1C [PP2325] | A (a compound having 10 or more and less than 20 is denoted as A) | A (a compound having 10 or more and less than 20 is denoted as A) |  |
| CCC[C@@H]1C[C@H]2C(=O)NC3(CC(C)(C)C3)C(=O)N(C)[C@@H](C3CCCC3)C(=O)N(C)[C@H](C(=O)N(C)C)CC(=O)N(C)[C@@H](CCC)C(=O)N[C@@H]([C@@H](C)CC)C(=O)N(C)CC(=O)N(C)[C@H]3C/C=C\CCN(C3=O)[C@@H](Cc3ccc(C)cc3)C(=O)N(C)CC(=O)N[C@@H](CCc3ccc(C(F)(F)F)c(Cl)c3)C(=O)N2C1 [PP2214] | A (a compound having 10 or more and less than 20 is denoted as A) | A (a compound having 10 or more and less than 20 is denoted as A) |  |
| CCOC[C@H]1C(=O)N[C@@H]([C@@H](C)CC)C(=O)N(C)CC(=O)N(C)[C@H]2C/C=C\CCN(C2=O)[C@@H](Cc2ccc(C(C)C)cc2)C(=O)N(C)CC(=O)N[C@@H](CCc2ccc(C(F)(F)F)c(OC)c2)C(=O)N2C[C@@H](C)C[C@H]2C(=O)NC2(CC(C)(C)C2)C(=O)N(C)[C@@H](C2CCCC2)C(=O)N(C)[C@H](C(=O)N(C)CC)CC(=O)N1C [PP2701] |  |  | NRAS/KRAS (ratio of KD value with respect to GDP-bound NRAS wild-type protein to KD value with respect to KRAS) [1]: A (a compound having 10 or more and less than 20 is denoted as A); HRAS/KRAS (ratio of KD value with respect to GDP-bound HRAS wild-type protein to KD value with respect to KRAS) [2]: A (a compound having 10 or more and less than 20 is denoted as A) |
| CC[C@H](C)[C@@H]1NC(=O)[C@H](CC(C)C)N(C)C(=O)C[C@@H](C(=O)N2CCOCC2)N(C)C(=O)[C@H](C2CCCC2)N(C)C(=O)C2(CCC2)NC(=O)[C@@H]2C[C@@H](OCC3CC3)CN2C(=O)[C@H](CCc2cc(F)c(C(F)(F)F)c(F)c2)NC(=O)CN(C)C(=O)[C@H](Cc2ccc(C(F)(F)F)cc2)N2CCCC[C@@H](C2=O)N(C)C(=O)CN(C)C1=O [PP1014] | C (A compound having a KD ratio of 0.1 or more and less than 3 is denoted as C) | C (A compound having a KD ratio of 0.1 or more and less than 3 is denoted as C) |  |
| CCCOC[C@H]1C(=O)N[C@@H]([C@@H](C)CC)C(=O)N(C)CC(=O)N(C)[C@H]2C/C=C\CCN(C2=O)[C@@H](Cc2ccc(C)cc2)C(=O)N(C)CC(=O)N[C@@H](CCc2ccc(C(F)(F)F)c(OC)c2)C(=O)N2C[C@H](OCC)C[C@H]2C(=O)N(C)C2(CCC2)C(=O)N(C)[C@@H](C2CCCC2)C(=O)N(C)[C@H](C(=O)N(C)C)CC(=O)N1C [PP2326] | A (a compound having 10 or more and less than 20 is denoted as A) | B (a compound having 3 or more and less than 10 is denoted as B) |  |
| CCO[C@@H]1C[C@H]2C(=O)NC3(CCC3)C(=O)N(C)[C@@H](C3CCCC3)C(=O)N(C)[C@H](C(=O)N3CCOCC3)CC(=O)N(C)[C@@H](CC(C)C)C(=O)N[C@@H]([C@@H](C)CC)C(=O)N(C)CC(=O)N(C)[C@H]3CC(C)=CCN(C3=O)[C@@H](Cc3ccc(C(F)(F)F)cc3)C(=O)N(C)CC(=O)N[C@@H](CCc3cc(F)c(C(F)(F)F)c(F)c3)C(=O)N2C1 [PP1039] | C (A compound having a KD ratio of 0.1 or more and less than 3 is denoted as C) | C (A compound having a KD ratio of 0.1 or more and less than 3 is denoted as C) |  |
| CCCO[C@@H]1CCN2C(=O)[C@H](CCc3cc(F)c(C(F)(F)F)c(F)c3)NC(=O)CN(C)C(=O)[C@H](Cc3ccc(C(F)(F)F)cc3)N3CCCCC[C@@H](C3=O)N(C)C(=O)CN(C)C(=O)[C@H]([C@@H](C)CC)NC(=O)[C@H](CC(C)C)N(C)C(=O)C[C@@H](C(=O)N3CCOCC3)N(C)C(=O)[C@H](C3CCCC3)N(C)C(=O)C3(CCC3)NC(=O)[C@H]12 [PP1083] | B (a compound having 3 or more and less than 10 is denoted as B) | B (a compound having 3 or more and less than 10 is denoted as B) |  |
| CCC(CC)[C@H]1C(=O)N(C)[C@H](C(=O)N(C)C)CC(=O)N(C)[C@@H](COC)C(=O)N[C@@H]([C@@H](C)CC)C(=O)N(C)CC(=O)N(C)[C@H]2C/C=C\CCN(C2=O)[C@@H](Cc2ccc(C)cc2)C(=O)N(C)CC(=O)N[C@@H](CCc2ccc(Cl)c(Cl)c2)C(=O)N2C[C@H](OC(C)C)C[C@H]2C(=O)N(C)C2(CC(C)(C)C2)C(=O)N1C [PP2814] |  |  | NRAS/KRAS (ratio of KD value with respect to GDP-bound NRAS wild-type protein to KD value with respect to KRAS) [1]: AA (a compound having 20 or more is denoted as AA); HRAS/KRAS (ratio of KD value with respect to GDP-bound HRAS wild-type protein to KD value with respect to KRAS) [2]: A (a compound having 10 or more and less than 20 is denoted as A) |
| CCC[C@@H]1C[C@H]2C(=O)NC3(CCCC3)C(=O)N(C)[C@@H](C3CCCC3)C(=O)N(C)[C@H](C(=O)N(C)C)CC(=O)N(C)[C@@H](CC)C(=O)N[C@@H]([C@@H](C)CC)C(=O)N(C)CC(=O)N(C)[C@H]3C/C=C\CCN(C3=O)[C@@H](Cc3ccc(C)cc3)C(=O)N(C)CC(=O)N[C@@H](CCc3cc(F)c(C(F)(F)F)c(F)c3)C(=O)N2C1 [PP2227] | A (a compound having 10 or more and less than 20 is denoted as A) | A (a compound having 10 or more and less than 20 is denoted as A) |  |
| CCO[C@@H]1C[C@H]2C(=O)NC3(CC(C)(C)C3)C(=O)N(C)[C@@H](C(CC)CC)C(=O)N(C)[C@H](C(=O)N(C)C)CC(=O)N(C)[C@@H](CC3CC3)C(=O)N[C@@H]([C@@H](C)CC)C(=O)N(C)CC(=O)N(C)[C@H]3C/C=C\CCN(C3=O)[C@@H](Cc3ccc(C)cc3)C(=O)N(C)CC(=O)N[C@@H](CCc3ccc(C(F)(F)F)c(Cl)c3)C(=O)N2C1 [PP2142] | AA (a compound having 20 or more is denoted as AA) | A (a compound having 10 or more and less than 20 is denoted as A) |  |
| CCO[C@@H]1C[C@H]2C(=O)NC3(CCC3)C(=O)N(C)[C@@H](C(CC)CC)C(=O)N(C)[C@H](C(=O)N(C)C)CC(=O)N(C)[C@@H](CC3CC3)C(=O)N[C@@H]([C@@H](C)CC)C(=O)N(C)CC(=O)N(C)[C@H]3C/C=C\CCN(C3=O)[C@@H](Cc3ccc(F)cc3C)C(=O)N(C)CC(=O)N[C@@H](CCc3cc(F)c(C(F)(F)F)c(F)c3)C(=O)N2C1 [PP1514] |  |  | NRAS/KRAS (ratio of KD value for NRAS to KD value for KRAS) ([1]; KD ratio class): A (a compound having 10 or more and less than 20 is denoted as A); HRAS/KRAS (ratio of KD value for HRAS to KD value for KRAS) ([2]; KD ratio class): A (a compound having 10 or more and less than 20 is denoted as A) |
| CCO[C@@H]1C[C@H]2C(=O)NC3(CCC3)C(=O)N(C)[C@@H](C3CCCC3)C(=O)N(C)[C@H](C(=O)N(C)C)CC(=O)N(C)[C@@H](CC3CCCC3)C(=O)N[C@@H]([C@@H](C)CC)C(=O)N(C)CC(=O)N(C)[C@H]3C/C=C\CCN(C3=O)[C@@H](Cc3ccc(C)cc3)C(=O)N(C)CC(=O)N[C@@H](CCc3ccc(C(F)(F)F)c(CC)c3)C(=O)N2C1 [PP2672] |  |  | NRAS/KRAS (ratio of KD value with respect to GDP-bound NRAS wild-type protein to KD value with respect to KRAS) [1]: B (a compound having 3 or more and less than 10 is denoted as B); HRAS/KRAS (ratio of KD value with respect to GDP-bound HRAS wild-type protein to KD value with respect to KRAS) [2]: B (a compound having 3 or more and less than 10 is denoted as B) |
| CCO[C@@H]1C[C@H]2C(=O)NC3(CCC3)C(=O)N(C)[C@@H](C(CC)CC)C(=O)N(C)[C@H](C)CC(=O)N(C)[C@@H](CC(C)C)C(=O)N[C@@H]([C@@H](C)CC)C(=O)N(C)CC(=O)N(C)[C@H]3C/C=C\CCN(C3=O)[C@@H](Cc3ccc(F)cc3C)C(=O)N(C)CC(=O)N[C@@H](CCc3cc(F)c(C(F)(F)F)c(F)c3)C(=O)N2C1 [PP1524] |  |  | NRAS/KRAS (ratio of KD value for NRAS to KD value for KRAS) ([1]; KD ratio class): B (a compound having 3 or more and less than 10 is denoted as B); HRAS/KRAS (ratio of KD value for HRAS to KD value for KRAS) ([2]; KD ratio class): B (a compound having 3 or more and less than 10 is denoted as B) |
| CCO[C@@H]1C[C@H]2C(=O)NC3(CCC3)C(=O)N(C)[C@@H](C3CCCC3)C(=O)N(C)[C@H](C(=O)N(C)C)CC(=O)N(C)[C@@H](CC3CC3)C(=O)N[C@@H]([C@@H](C)CC)C(=O)N(C)CC(=O)N(C)[C@H]3C/C=C\CCN(C3=O)[C@@H](Cc3ccc(F)cc3C)C(=O)N(C)CC(=O)N[C@@H](CCc3cc(F)c(C(F)(F)F)c(F)c3)C(=O)N2C1 [PP1528] |  |  | NRAS/KRAS (ratio of KD value for NRAS to KD value for KRAS) ([1]; KD ratio class): A (a compound having 10 or more and less than 20 is denoted as A); HRAS/KRAS (ratio of KD value for HRAS to KD value for KRAS) ([2]; KD ratio class): B (a compound having 3 or more and less than 10 is denoted as B) |
| CCO[C@@H]1CCN2C(=O)[C@H](CCc3cc(F)c(C(F)(F)F)c(F)c3)NC(=O)CN(C)C(=O)[C@H](Cc3ccc(C(F)(F)F)cc3)N3CCCCC[C@@H](C3=O)N(C)C(=O)CN(C)C(=O)[C@H]([C@@H](C)CC)NC(=O)[C@H](CC(C)C)N(C)C(=O)C[C@@H](C(=O)N3CCOCC3)N(C)C(=O)[C@H](C3CCCC3)N(C)C(=O)C3(CCC3)NC(=O)[C@H]12 [PP1082] | A (a compound having 10 or more and less than 20 is denoted as A) | B (a compound having 3 or more and less than 10 is denoted as B) |  |
